Data set [1] is described as follows: Single ascending oral doses of CHP (Study 1001-68) and single IV dose (Study 0302-72): pharmacokinetics and safety in healthy volunteers. To be noted: healthy subjects. Format: in vivo, human. An excerpt: study title Safety, tolerability and pharmacokinetic profile of single ascending doses of oral cis-4-hydroxy-L-proline (CHP) in healthy volunteers Galmed study no. 1001-68-. Results FIGS. 3 and 4.
Study title: Single Dose Absolute Bioavailability (intravenous IV solution) and Safety Study of CHP in Healthy Volunteers-GALMED Study No: 0302-72. Results are in (FIGS. 5 and 6)
Six healthy volunteers (male, caucasian—18-45 years old) were recruited from the GCP-Galmed clinical centre. All healthy volunteers provided written informed consent prior to study participation. The study was approved by the independent Ethical Committee.
All volunteers were orally administered 2, 4, 6, 8, 10 and 12 grams of CHP with a wash out period of at least one week between doses of CHP.
The following blood and urine samples were collected for determination of the pharmacokinetics parameters of CHP and THP:
10 hours and immediately prior to administration of CHP (0 Hour), and at 0.25, 0.5, 1, 1.5, 2, 2.5, 3, 4, 5, 6, 12 and 24 hours after administration of CHP.
Urine was collected for the determination of the CHP and THP concentrations and the calculation of the elimination parameters of CHP and THP.
Six healthy volunteers (male, caucasian—18-45 years old) were recruited from the GCP-Galmed clinical centre. All healthy volunteers provided written informed consent prior to study participation. The study was approved by the independent Ethical Committee. Single doses of CHP were intravenously administered: 2.0 g, 4.0 g (2×2.0 g). Each dose level was administered to all healthy volunteers. There was a washout period of at least one week between doses.
The following safety parameters were determined at the pre- and post-study examinations: • 1. Vital signs • 2. Clinical laboratory: Blood chemistry, Haematology, Coagulation, Urinalysis • 3. Adverse events (Signs and Symptoms) have been recorded in each of the two treatment periods.

A short description of data set [2]: Multiple dose ascending bioavailability and safety study (Phase I) with oral CHP (Study 0202-71). Format: in vivo, human. The procedure:
Example 5—Study Title: Multiple Dose Ascending Bioavailability and Safety Study Phase 1 with Oral CHP-GALMED Study No: 0202-71
12 healthy Caucasian males were recruited (age: 18-45 years).
Multiple doses of CHP were orally administered: • 4×2.0 g CHP per day, for 14 consecutive days (total daily dose=8.0 g CHP) • 4×3.0 g CHP per day, for 14 consecutive days (total daily dose=12.0 g CHP) Each dose level was administered to all volunteers.
Objectives • To determine the pharmacokinetic parameters and safety of CHP and THP in plasma following oral administration of multiple doses of 8 g CHP (4×2 g) and 12 g CHP (4×3 g)—4× daily, τ=6 h, respectively, in 12 healthy subjects on Day 1 and Day 14. • To model and simulate plasma concentrations of CHP and THP during Days 1 to 14.

A short description of data set [3]: Tissue distribution, bioaccumulation and pharmacokinetics following multiple dose administration of 3H-CHP in mice (Study IPSS E015). In kind it is in vivo. The note with it: multiple dose administration. An excerpt: Example 2. A Study in Mice on the Tissue Distribution, Bioaccumulation and Pharmacokinetics in Tissues, Connective and BrainTissues Following Multiple Dose Administration of ^3H-CHP Study No. IPSS E015 (FIG. 2)
According to this invention the study has been designed and performed as follows:
From each mouse sacrificed, the following organs & tissues samples were taken:
Liver, kidney, pancreas, limbic system, spinal fluid, brain stem, cerebrum, cerebellum, cartilage, ligaments and tendons (dense or fibrous connective tissue), loose connective tissue, and reticular connective tissue (supports lymph nodes, bone marrow, and spleen)

Data set [4] in a line: Tissue distribution and pharmacokinetics of single dose of radiolabelled 3H-CHP in mice (Study IPSS C053). In kind it is in vivo. The note with it: for Tissues that accumulated particularly high CHP concentrations: single dose 3H-CHP; for AUC-1 in the stomach / Cmax in the stomach / Cmax in brain & pituitary gland / AUC-1 for remaining carcass as % of the totaled AUC-1 for all tissues & samples: single dose 50 μCi 3H-CHP. An excerpt:
Example 1: Tissue Distribution and Pharmacokinetic Study with CHP Study “Clinical Study in Mice on the Tissue Distribution and Pharmacokinetics of Single Dose of the Radiolabelled ^3H-CHP-Study No.: IPSS C053”—(FIG. 1). This Study has been Designed and Performed According to this Invention
1. Determination of ^3H-CHP distribution in 25 tissues, remaining carcass and whole blood over time.
2. Determination of pharmacokinetic parameters of CHP.
3. Comparison of intravenous (IV), and oral routes of administration.
^3H-CHP Labelling • CHP was labelled on the 4-prime position using tritium. • The scintillation counting technique detects the tritium atom. • Therefore the counting technique detects CHP and some metabolites which incorporate the tritium. […] They were selected using inclusion and exclusion criteria, and were therefore highly standardised.
Dosing Regimen • 48 animals were each administered 50 μCi ^3H-CHP at the start of the experiment. This was termed time zero (00:00 hrs). • 27 mice were dosed via the intravenous (IV) route. • 21 mice were dosed via the oral route. • Six (6) animals were not administered with CHP. They form two control groups of 3 mice each.
Data Collection • 3 mice were sacrificed following the SOP for anesthesia and according to the following time intervals
Sample Collection • From each sacrificed mouse, the following samples were taken: • Whole BloodEyes & Harderian GlandsKidneys & Adrenal GlandsAortaLiverLungSpleenUrinary BladderBone & Bone MarrowCaecumSmall IntestineLarge IntestineLymph Nodes (Mesenteric) Muscle, PancreasBrain & Pituitary GlandBrown FatSubcutaneous FatHeartThymousBoth TestesProstateSkinStomachThyroidSalivary GlandsRemaining CarcassUrine (collected if possible: in practise this was rare)
The remaining carcass sample consisted of the rest after removal of whole blood and the other tissues. Any material cleaned from other tissues listed above was also included. The collected remainings were homogenised before analysis.

The mark [5] stands for this setting: after oral administration of CHP 2 g-12 g.
Where [6] appears, read: male, human, plasma, healthy subjects, oral 4×2.0 g CHP/day.
[7] abbreviates: oral CHP, administration 4× daily.

Here are results for 2 compounds from patent US10328051B2, “Proline or proline derivatives for the treatment of dementia” (priority 2014, dated 2019).

For orientation: MRT means the average time that molecules of a dose stay in the body. What is called half-life is how long it takes for the measured level to halve. As usually defined, the Tmax is the time from dosing to the highest level. By Cmax is commonly meant the maximum level reached in the sampled fluid or tissue. Broadly, the MRT inf is the average time that molecules of a dose stay in the body.

For the compound `O=C(O)[C@@H]1C[C@@H](O)CN1` [THP, trans-4-hydroxy-L-proline], in data set [1] (setting [5]), the “Oral clearance (average)” value came out at 798.42 mL/min and the “Volume of distribution (average)” value is 804.70 L. Besides, in data set [1] (oral CHP doses 2 g-12 g), the “Correlation of Cmax and AUC(0-∞) with dose” value is on record as “dose linearity”. The MRT in data set [1] (male, human, blood, after oral administration of CHP 2 g-12 g, read-out: Mean residence time (MRT) (average)) worked out at 23.2 h. For the same compound, the half-life in data set [1] (male, human, in vivo, after oral administration of CHP 2 g-12 g, read-out: Elimination half life (average) (converted)) was 14.8 h. In data set [1] (male, human, plasma, after oral administration of CHP 2 g-12 g), the Tmax came to 4.92 h. Besides, in data set [2] (setting [6]), the Cmax was 9560 ng/mL, the Tmax is 1.5 h and the half-life is 12.4 h. The MRT inf in data set [2] (male, human, plasma, healthy subjects, oral 4×2.0 g CHP/day, read-out: MRT (0-inf)) was determined as 19.1 h. Also, the “Accumulation following oral administration” value in data set [2] (multiple oral doses of CHP) is on record as “remarkable extent”. Besides, the “Time after which a steady state was observed” value in data set [2] (multiple oral doses of CHP, 4× daily, simulation of plasma concentration-time curves) is on record as approximately 96 h. Further, in data set [2] (setting [7]), the “Css,min lower if 2.0 g of CHP was administered (versus 3.0 g)” value was 24%; the “Increase of AUCss,t, Css,max and Css,ave when the dose was increased from 2.0 g up to 3.0 g” value was “approximately 50%”.
For `O=C(O)C1C[C@H](O)CN1` (stereo partly shown) [^3H-CHP], the “Tissues with particular high levels of 3H-CHP accumulation” value in data set [3] is “kidneys and adrenal glands liver, pancreas loose connective tissue cartilage, reticular connective tissue, dense/fibrinous connective tissues”. Also, the “Tissues that accumulated particularly high CHP concentrations” value in data set [4] (intravenous application) was “Pancreas, lymph nodes (mesenteric), kidneys & adrenal Glands, caecum, large intestine, small intestine, spleen, liver, urinary bladder”; in data set [4] (oral application), “Pancreas, stomach, kidneys & adrenal glands, small intestine, lymph nodes (mesenteric), spleen, caecum, bone & bone marrow, large intestine, and liver”. Moreover, the entries for the “AUC-1 in the stomach” value in data set [4] (IV) and in data set [4] (oral) were 10.493 DPM/mg and 27.297 DPM/mg, respectively. The “Cmax in the stomach” value in data set [4] (IV) came to 3.269 DPM/mg; in data set [4] (oral) it was 7.361 DPM/mg. Besides, the “Cmax in brain & pituitary gland” value in data set [4] (IV, control 4 DPM/mg) amounted to 876 DPM/mg; in data set [4] (oral, control 1 DPM/mg), 419 DPM/mg. The “AUC-1 for remaining carcass as % of the totaled AUC-1 for all tissues & samples” value in data set [4] (intravenous (IV)) turned out to be 73.3%; in data set [4] (oral), 61.8%.
